Experimental findings from PubChem BioAssay AID1348 (Sanford-Burnham Center for Chemical Genomics, 2008) are described below.

Active and inactive are the calls of the source.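 Rule for the calls: active = cell survival above 50% at 25 µM despite a drug that triggers cell death; inactive = the rest.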

The experiment has as its system CSM14.1 staurosporine-induced death rescue, ATPlite, 24 h. Put plainly: staurosporine death rescue in CSM14.1 cells – cell-based, undifferentiated CSM14.1, ATP luminescence, selectivity assay for ER stress death inhibitor project, SAR follow-up (AID 1348). To be noted: at 25 µM; stronger effect = higher value.
For the molecule `CCOc1cc(C2Nc3ccccc3NC3=C2C(=O)CC(c2ccc(OC)cc2)C3)cc(Cl)c1O` (stereo unspecified), the survival is 9% (inactive).

Consider `COc1ccc(C2CC(=O)C3=C(C2)Nc2ccccc2NC3c2cccc(C(F)(F)F)c2)cc1OC` (stereo unspecified), for which the survival was 10% (inactive). Take `COc1ccc(C2CC(=O)C3=C(C2)Nc2ccccc2NC3c2cccc(Oc3ccccc3)c2)cc1OC` (stereo unspecified): the survival was 11% (inactive). As for `COc1ccc(C2CC(=O)C3=C(C2)Nc2ccccc2NC3c2cc(C)ccc2C)cc1` (stereo unspecified), the figure is 9% (inactive); as for `COc1ccc(C2CC(=O)C3=C(C2)Nc2ccccc2NC3c2cccc(Br)c2)cc1OC` (stereo unspecified), 10% (inactive). On to `CSc1ccc(C2Nc3ccccc3NC3=C2C(=O)CC(c2ccccc2)C3)cc1` (stereo unspecified), for which the survival was 8% (inactive). For `CC1(C)CC(=O)C2=C(C1)Nc1ccccc1NC2c1ccc(-c2ccccc2)cc1` (stereo unspecified), the survival is 13% (inactive). With `CCCOc1ccc(C2Nc3ccccc3NC3=C2C(=O)CC(c2ccc(OC)c(OC)c2)C3)cc1` (stereo unspecified) the figure was 12% (inactive). With `CCOc1cccc(C2Nc3ccccc3NC3=C2C(=O)CC(c2ccc(OC)cc2)C3)c1` (stereo unspecified) the figure was 8% (inactive); with `O=C1CC(c2ccccc2)CC2=C1C(c1c(F)cccc1Cl)Nc1ccccc1N2` (stereo unspecified), 8% (inactive); with `COc1ccc(C2CC(=O)C3=C(C2)Nc2ccccc2NC3c2ccccc2C(F)(F)F)cc1OC` (stereo unspecified), 6% (inactive).
